According to patent publication US9718828B2 (MERCK SHARP & DOHME CORP., priority 2011, dated 2017):
Counter-ions that a name gives are not always drawn.

Molecular target: hBTK (full-length BTK, 6HIS-tag cleaved) (Homo sapiens (Human), UniProt Q06187)
Assay: BTK enzymatic activity, LANCE TR-FRET assay (Assay Method C)
Type: biochemical
Conditions: LANCE TR-FRET, 50 pM hBTK, 25 μM ATP; class 100-1000 is given as ≧100 nM-<1 μM; read-out: IC50 Btk activity values - Assay Method C

Sequence of hBTK (full-length BTK, 6HIS-tag cleaved) (Q06187 whole entry): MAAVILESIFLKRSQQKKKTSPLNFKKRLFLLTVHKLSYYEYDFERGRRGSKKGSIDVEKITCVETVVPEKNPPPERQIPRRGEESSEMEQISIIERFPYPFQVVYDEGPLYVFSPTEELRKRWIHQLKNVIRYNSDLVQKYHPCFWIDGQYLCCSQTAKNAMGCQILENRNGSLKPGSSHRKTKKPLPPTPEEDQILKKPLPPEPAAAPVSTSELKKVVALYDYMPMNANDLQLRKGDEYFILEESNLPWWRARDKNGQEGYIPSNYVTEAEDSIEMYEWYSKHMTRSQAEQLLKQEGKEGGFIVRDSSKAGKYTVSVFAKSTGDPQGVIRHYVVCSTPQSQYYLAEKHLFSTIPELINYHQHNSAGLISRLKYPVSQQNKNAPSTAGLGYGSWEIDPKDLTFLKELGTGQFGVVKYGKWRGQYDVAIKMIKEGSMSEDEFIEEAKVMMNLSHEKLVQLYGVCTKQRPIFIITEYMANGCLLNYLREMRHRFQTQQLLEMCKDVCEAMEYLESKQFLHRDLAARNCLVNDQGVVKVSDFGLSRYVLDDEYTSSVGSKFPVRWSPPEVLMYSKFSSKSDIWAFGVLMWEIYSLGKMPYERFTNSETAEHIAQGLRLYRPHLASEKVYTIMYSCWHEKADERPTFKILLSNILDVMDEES

`COCCC(=O)N1CCO[C@@H](c2nc(-c3ccc(C(=O)Nc4cc(C(F)(F)F)ccn4)cc3)c3c(N)ncc(C)n23)C1` [Example 510, 4-{8-amino-3-[(2R)-4-(3-methoxypropanoyl)morpholin-2-yl]-5-methylimidazo[1,5-a]pyrazin-1-yl}-N-[4-(trifluoromethyl)pyridin-2-yl]benzamide] was tested. Which IC50 did it give?
Its IC50 is < 10 nM.

For `Cn1ncc2c1CCC[C@@H]2n1nc(-c2ccc(C(=O)Nc3cc(C(F)(F)F)ccn3)cc2)c2c(N)ncnc21` [Example 553, 4-{4-amino-1-[(4S)-1-methyl-4,5,6,7-tetrahydro-1H-indazol-4-yl]-1H-pyrazolo[3,4-d]pyrimidin-3-yl}-N-[4-(trifluoromethyl)pyridin-2-yl]benzamide, TFA salt], which IC50 is on record?
Its IC50 is < 10 nM.

For `Cc1cnc(N)c2c(-c3ccc(C(=O)Nc4cc(C(F)(F)F)ccn4)cc3)nc([C@H]3CN(C(=O)C(F)F)CCO3)n12` [Example 538, 4-{8-amino-3-[(2R)-4-(difluoroacetyl)morpholin-2-yl]-5-methylimidazo[1,5-a]pyrazin-1-yl}-N-[4-(trifluoromethyl)pyridin-2-yl]benzamide, TFA salt], which IC50 is on record?
Its IC50 is < 10 nM.

For `CC1(C(=O)N2CCC[C@@H](c3nc(-c4ccc(C(=O)Nc5cc(C(F)(F)F)ccn5)cc4)c4c(N)ncc(C#N)n34)C2)COC1` [Example 373, (R)-4-(8-amino-5-cyano-3-(1-(3-methyloxetane-3-carbonyl)piperidin-3-yl)imidazo[1,5-a]pyrazin-1-yl)-N-(4-(trifluoromethyl)pyridin-2-yl)benzamide], which IC50 is on record?
Its IC50 is < 10 nM.

For `CC1(C(=O)N2CCC[C@@H](n3nc(-c4ccc(C(=O)Nc5cc(C(F)(F)F)ccn5)cc4)c4c(N)ncc(Cl)c43)C2)COC1` [Example 382, 4-(4-amino-7-chloro-1-{(3R)-1-[(3-methyloxetan-3-yl)carbonyl]piperidin-3-yl}-1H-pyrazolo[4,3-c]pyridin-3-yl)-N-[4-(trifluoromethyl)pyridin-2-yl]benzamide], which IC50 is on record?
The IC50 was < 10 nM.

`COCCC(=O)N1CCC[C@@H](c2nc(-c3ccc(C(=O)Nc4cc(C(F)(F)F)ccn4)cc3F)c3c(N)nccn23)C1` [Example 576, 4-{8-amino-3-[(3R)-1-(3-methoxypropanoyl)piperidin-3-yl]imidazo[1,5-a]pyrazin-1-yl}-3-fluoro-N-[4-(trifluoromethyl)pyridin-2-yl]benzamide, TFA salt] was tested. Which IC50 did it give?
The IC50 was < 10 nM.

For `C[C@H]1CC[C@@H](c2nc(-c3ccc(C(=O)Nc4cc(OC5CC5)ccn4)cc3)c3c(N)nccn23)CN1C(=O)C1(C)COC1` [Example 409, 4-(8-amino-3-{(3R,6S)-6-methyl-1-[(3-methyloxetan-3-yl)carbonyl]piperidin-3-yl}imidazo[1,5-a]pyrazin-1-yl)-N-[4-(cyclopropyloxy)pyridin-2-yl]benzamide], which IC50 is on record?
Its IC50 is < 10 nM.

For `Nc1ncnc2c1c(-c1ccc(C(=O)Nc3cc(C(F)(F)F)ccn3)cc1)nn2[C@H]1CCCc2c1cnn2CCO` [Example 563, 4-{4-amino-1-[(4S)-1-(2-hydroxyethyl)-4,5,6,7-tetrahydro-1H-indazol-4-yl]-1H-pyrazolo[3,4-d]pyrimidin-3-yl}-N-[4-(trifluoromethyl)pyridin-2-yl]benzamide, TFA salt], which IC50 is on record?
Its IC50 is < 10 nM.

Which IC50 does the source give for `N#CCCN1CCO[C@@H](c2nc(-c3ccc(C(=O)Nc4cc(C(F)(F)F)ccn4)cc3)c3c(N)nccn23)C1` [Example 532, 4-{8-amino-3-[(2R)-4-(2-cyanoethyl)morpholin-2-yl]imidazo[1,5-a]pyrazin-1-yl}-N-[4-(trifluoromethyl)pyridin-2-yl]benzamide] here?
Its IC50 is < 10 nM.

With `CC1(C(=O)N2CCC[C@@H](c3nc(-c4ccc(C(=O)Nc5cc(C(F)(F)F)ccn5)cc4F)c4c(N)ncc(Cl)n34)C2)COC1` [Example 447, 4-(8-amino-5-chloro-3-{(3R)-1-[(3-methyloxetan-3-yl)carbonyl]piperidin-3-yl}imidazo[1,5-a]pyrazin-1-yl)-3-fluoro-N-[4-(trifluoromethyl)pyridin-2-yl]benzamide] as the compound, how does the IC50 read?
The IC50 was < 10 nM.

How did the IC50 turn out when `Nc1nccn2c([C@H]3CN(CC4CC4)CCO3)nc(-c3ccc(C(=O)Nc4cc(C(F)(F)F)ccn4)cc3)c12` [Example 508, 4-{8-amino-3-[(2R)-4-(cyclopropylmethyl)morpholin-2-yl]imidazo[1,5-a]pyrazin-1-yl}-N-[4-(trifluoromethyl)pyridin-2-yl]benzamide] was run?
Its IC50 is < 10 nM.

For `CCC(=O)N1CCC[C@@H](c2nc(-c3ccc(C(=O)Nc4cc(C(F)F)ccn4)cc3F)c3c(N)nccn23)C1` [Example 488, 4-{8-amino-3-[(3R)-1-propanoylpiperidin-3-yl]imidazo[1,5-a]pyrazin-1-yl}-N-[4-(difluoromethyl)pyridin-2-yl]-3-fluorobenzamide], which IC50 is on record?
The IC50 was < 10 nM.

`CN1CC[C@@H](C(=O)N2CCC[C@@H](c3nc(-c4ccc(C(=O)Nc5cc(C(F)(F)F)ccn5)cc4)c4c(N)nccn34)C2)C1` [Example 348, 4-(8-amino-3-[(3R)-1-{[(3R)-1-methylpyrrolidin-3-yl]carbonyl}piperidin-3-yl]imidazo[1,5-a]pyrazin-1-yl}-N-[4-(trifluoromethyl)pyridin-2-yl]benzamide] was tested. Which IC50 did it give?
The IC50 was < 10 nM.

`CC1(C(=O)N2CCC[C@@H](c3nc(-c4ccc(C(=O)Nc5cc(C(C)(F)F)ccn5)cc4F)c4c(N)nccn34)C2)COC1` [Example 484, 4-(8-amino-3-{(3R)-1-[(3-methyloxetan-3-yl)carbonyl]piperidin-3-yl}imidazo[1,5-a]pyrazin-1-yl)-N-[4-(1,1-difluoroethyl)pyridin-2-yl]-3-fluorobenzamide] was tested. Which IC50 did it give?
Its IC50 is < 10 nM.

For `Nc1nccn2c([C@@H]3CN[C@H](CO)CO3)nc(-c3ccc(C(=O)Nc4cc(C(F)(F)F)ccn4)cc3)c12` [Example 547, 4-{8-amino-3-[(2S,5R)-5-(hydroxymethyl)morpholin-2-yl]imidazo[1,5-a]pyrazin-1-yl}-N-[4-(trifluoromethyl)pyridin-2-yl]benzamide, TFA salt], which IC50 is on record?
Its IC50 is 10 to 100 nM.

With `Cn1ncc2c1CCC[C@H]2n1nc(-c2ccc(C(=O)Nc3cc(C(F)(F)F)ccn3)cc2)c2c(N)ncnc21` [Example 552, 4-{4-amino-1-[(4R)-1-methyl-4,5,6,7-tetrahydro-1H-indazol-4-yl]-1H-pyrazolo[3,4-d]pyrimidin-3-yl}-N-[4-(trifluoromethyl)pyridin-2-yl]benzamide, TFA salt] as the compound, how does the IC50 read?
The IC50 was < 10 nM.

`N#CC1(C(=O)N2CCC[C@@H](c3nc(-c4ccc(C(=O)Nc5cc(C(F)(F)F)ccn5)cc4)c4c(N)nccn34)C2)CC1` [Example 335, 4-(8-amino-3-{(3R)-1-[(1-cyanocyclopropyl)carbonyl]piperidin-3-yl}imidazo[1,5-a]pyrazin-1-yl)-N-[4-(trifluoromethyl)pyridin-2-yl]benzamide] was tested. Which IC50 did it give?
Its IC50 is < 10 nM.

For `Nc1nccn2c([C@@H]3CCCN(C(=O)NC4CC4)C3)nc(-c3ccc(C(=O)Nc4cc(C(F)(F)F)ccn4)cc3F)c12` [Example 489, (3R)-3-[8-amino-1-(2-fluoro-4-{[4-(trifluoromethyl)pyridin-2-yl]carbamoyl}phenyl)imidazo[1,5-a]pyrazin-3-yl]-N-cyclopropylpiperidine-1-carboxamide], which IC50 is on record?
Its IC50 is < 10 nM.

For `Nc1nccn2c([C@H]3CN(C(=O)CO)CCO3)nc(-c3ccc(C(=O)Nc4cc(C(F)(F)F)ccn4)cc3)c12` [Example 517, 4-{8-amino-3-[(2R)-4-(hydroxyacetyl)morpholin-2-yl]imidazo[1,5-a]pyrazin-1-yl}-N-[4-(trifluoromethyl)pyridin-2-yl]benzamide], which IC50 is on record?
The IC50 was < 10 nM.

With `CC1(C(=O)N2CCC[C@@H](c3nc(-c4ccc(C(=O)Nc5ccc(C#N)cn5)cc4)c4c(N)nccn34)C2)COC1` [Example 327, 4-(8-amino-3-{(3R)-1-[(3-methyloxetan-3-yl)carbonyl]piperidin-3-yl}imidazo[1,5-a]pyrazin-1-yl)-N-(5-cyanopyridin-2-yl)benzamide] as the compound, how does the IC50 read?
The IC50 was < 10 nM.

With `COCC(=O)N1CCC[C@@H](n2nc(-c3ccc(C(=O)Nc4cc(C(F)(F)F)ccn4)cc3)c3c(N)nccc32)C1` [Example 383, 4-{4-amino-1-[(3R)-1-(methoxyacetyl)piperidin-3-yl]-1H-pyrazolo[4,3-c]pyridin-3-yl}-N-[4-(trifluoromethyl)pyridin-2-yl]benzamide] as the compound, how does the IC50 read?
The IC50 was < 10 nM.

`CCOCCC(=O)N1CCO[C@@H](c2nc(-c3ccc(C(=O)Nc4cc(C(F)(F)F)ccn4)cc3)c3c(N)nccn23)C1` [Example 503, 4-{8-amino-3-[(2R)-4-(3-ethoxypropanoyl)morpholin-2-yl]imidazo[1,5-a]pyrazin-1-yl}-N-[4-(trifluoromethyl)pyridin-2-yl]benzamide] was tested. Which IC50 did it give?
The IC50 was < 10 nM.

How did the IC50 turn out when `CS(=O)(=O)CC(=O)N1CCC[C@@H](c2nc(-c3ccc(C(=O)Nc4cc(C(F)(F)F)ccn4)cc3)c3c(N)nccn23)C1` [Example 349, 4-(8-amino-3-{(3R)-1-[(methylsulfonyl)acetyl]piperidin-3-yl}imidazo[1,5-a]pyrazin-1-yl)-N-[4-(trifluoromethyl)pyridin-2-yl]benzamide] was run?
The IC50 was < 10 nM.

With `Nc1nccn2c([C@@H]3CCCN(C(=O)CCC(F)(F)F)C3)nc(-c3ccc(C(=O)Nc4cc(C(F)(F)F)ccn4)cc3)c12` [Example 331, 4-{8-amino-3-[(3R)-1-(4,4,4-trifluorobutanoyl)piperidin-3-yl]imidazo[1,5-a]pyrazin-1-yl}-N-[4-(trifluoromethyl)pyridin-2-yl]benzamide] as the compound, how does the IC50 read?
The IC50 was < 10 nM.

Which IC50 does the source give for `COCC(=O)N1CCO[C@@H](c2nc(-c3ccc(C(=O)Nc4cc(C(F)(F)F)ccn4)cc3)c3c(N)nccn23)C1` [Example 521, 4-{8-amino-3-[(2R)-4-(methoxyacetyl)morpholin-2-yl]imidazo[1,5-a]pyrazin-1-yl}-N-[4-(trifluoromethyl)pyridin-2-yl]benzamide] here?
The IC50 was < 10 nM.

Which IC50 does the source give for `Cc1cnc(N)c2c(-c3ccc(C(=O)Nc4cc(C(F)(F)F)ccn4)cc3)nc([C@H]3CN(Cc4cnn(C)c4)CCO3)n12` [Example 509, 4-(8-amino-5-methyl-3-{(2R)-4-[(1-methyl-1H-pyrazol-4-yl)methyl]morpholin-2-yl}imidazo[1,5-a]pyrazin-1-yl)-N-[4-(trifluoromethyl)pyridin-2-yl]benzamide] here?
Its IC50 is < 10 nM.
